Results taken from publication PMC2994023 (Interdisciplinary Toxicology, 2010).

Tests used:
[1] = Incubation of N-(2-methoxyphenyl)hydroxylamine without hepatic microsomal enzymes or without NADPH (spontaneous conversion); assay type: physicochemical; settings: pH 7.4, without hepatic microsomal enzymes or without NADPH
Protocol: At pH 7.4, used for microsomal incubations, their spontaneous formation was negligible.

[2] = test system: rat hepatic microsomes enriched with CYP2E1; assay: Metabolism of N-(2-methoxyphenyl)hydroxylamine by hepatic microsomes of rats pre-treated with ethanol; assay type: in vitro ADME
Protocol: (§1) The study was conducted in accordance with the Regulations for the Care and Use of Laboratory Animals (311/1997, Ministry of Agriculture, Czech Republic), which complies with Declaration of Helsinki. Microsomes from livers of ten untreated rats and three rabbits were prepared by the procedure described previously (Stiborová et al., [1988]). Microsomes from the livers of ten male Wistar rats pretreated with β-NF (Stiborová et al., [1988]) were isolated as described (Stiborová et al., [1988]; [1995]), those pretreated with phenobarbital (PB) as reported by Hodek et al. ([1988]), and those pretreated with ethanol were isolated using a procedure described by Yang et al. ([1985]). Protein concentrations in the microsomal fractions were assessed using the bicinchoninic acid protein assay with bovine serum albumin as a standard (Wiechelman et al., [1988]). The concentration of CYP was estimated according to Omura and Sato ([1964]), by measuring the absorption of the complex of reduced CYP with carbon monoxide. […] The activity of NADPH:CYP reductase in rat hepatic microsomes was measured according to Sottocasa et al. ([1967]) using cytochrome c as substrate (i.e., as NADPH:cytochrome c reductase).

rat hepatic microsomes = assay: Metabolism of N-(2-methoxyphenyl)hydroxylamine by hepatic microsomes of control (uninduced) rats, HPLC of metabolites; assay type: in vitro ADME; settings: 1.0 mM substrate
Protocol: as §1

CYP = CYP concentration in hepatic microsomes of induced rats (CO complex of reduced CYP); settings: hepatic microsomes of rats induced with the agent
Protocol: as §1

NADPH:CYP reductase = NADPH:CYP reductase activity in hepatic microsomes of induced rats (cytochrome c as substrate); settings: hepatic microsomes of rats induced with the agent
Protocol: as §1

Sacchromyces cerevisiae = settings: ref Brennan and Schiestl ([1997]); cited from earlier work

Compound	CYP content of hepatic microsomes (CYP)	NADPH:CYP reductase activity in hepatic microsomes (NADPH:CYP reductase)	also measured
COc1ccccc1NO [N-(2-methoxyphenyl)hydroxylamine]	–	–	spontaneous formation of metabolite M1 and o-aminophenol [1]: negligible; change of levels of o-anisidine versus control microsomes [2]: decreased; formation of metabolite M1 (rat hepatic microsomes): negligible
CCC1(c2ccccc2)C(=O)NC(=O)NC1=O [PB, phenobarbital]	2.7 nmol CYP/mg protein	0.325 µmol/min/mg protein	–
CCO [ethanol]	1.8 nmol CYP/mg protein	0.201 µmol/min/mg protein	–
Nc1ccccc1O [o-aminophenol]	–	–	result in the deletion recombination assay (Sacchromyces cerevisiae): positive
O=c1cc(-c2ccccc2)oc2ccc3ccccc3c12 [β-NF, β-naphthoflavone]	1.3 nmol CYP/mg protein	0.199 µmol/min/mg protein	–
